# What was measured:
# [1] = tested on: ECs in NSC/EC co-spheroids; experiment: qRT-PCR of EC activity and angiogenic markers in co-spheroids encapsulated in gelatin-based hydrogel; assay type: cell-based; conditions: FGF2 1 μg/mL in gelatin-based hydrogel, 3 days
# Experimental: Total RNA from the adherent cells or cell spheroids formed on CS-HA substrates and embedded in the hydrogels was extracted by Trizol reagent (Invitrogen) as the manufacturer's instructions. One microgram of total RNA was further subjected to the cDNA synthesis. cDNA pool was generated by RevertAid First Strand cDNA Synthesis Kit (MBI Fermentas, Canada) using the standard protocol. qRT-PCR was performed by StepOnePlus thermos cycler (Applied Biosystems) using the DyNAmo Flash SYBR Green qPCR Kit (Finnzymes Oy, Finland). […]
# To investigate whether EC activity in NSC/EC co-spheroids was promoted after encapsulation in gelatin-based hydrogel, the co-spheroids that were cultured on CS-HA substrates for 2 days were collected, and then encapsulated by gelatin-based hydrogel. After encapsulation for 3 days, the expression of several markers representative of mitogenic and angiogenic activities of ECs was determined.
# On the other hand, a relative long-term culture of co-spheroids in the gelatin-based hydrogel containing FGF2 for 12 days was also performed, and the activity of ECs was analyzed by gene expression.
# To further verify the angiogenic potential of ECs in the co-spheroids, more angiogenic markers for ECs including angiopoietin-1, angiopoietin-2, and tyrosine kinase 1 (Flt-1) were analyzed.
# [2] = tested on: NSC/EC co-spheroids; experiment: Morphology and relative size of co-spheroids encapsulated in hydrogels; assay type: cell-based; conditions: FGF2 1 μg/mL
# Experimental: To observe the morphological alteration of NSC/EC co-spheroids embedded in the hydrogels, the cells were labeled with fluorescent dyes before seeding on CS-HA substrates. After gelation, the culture medium was added and changed every 2 days. The morphologies of cell spheroids formed on CS/CS-HA substrates and encapsulated in the various hydrogels were observed by a fluorescence microscope (Leica, DMIRB), and the relative sizes of cell spheroids were determined by ImageJ software (National Institutes of Health, USA).
# To support the long-term growth of NSC/EC co-spheroids, the co-spheroids derived from the CS-HA substrates were respectively embedded in the CS-based and gelatin-based hydrogels. […] On the other hand, the cell growth rates in the spheroids were evaluated by the spheroid size. Cells in EC mono-spheroids grew faster than those in NSC mono-spheroids, and the growth rate in NSC/EC co-spheroids was the slowest in both hydrogels, though the difference among each group was not statistically significant.
# In some embodiments, the fibroblast growth factor 2 (FGF2) protein was used to promote the growth of co-spheroids in hydrogels. In order to evenly add FGF2 to hydrogels, FGF2 (PeproTech, USA) was added to the hydrogel solution and mixed before the gelation. The final concentration of the FGF2 protein in hydrogels was 1 μg/mL. […]
substance,measurement,setting,value
fibroblast growth factor 2 [FGF2],"expression of KDR, VEGF, ITGb1, VE-cadherin upon addition of FGF2",[1],did not seem to be apparently affected
same,growth rates of the co-spheroids after FGF2 induction,[2]; in CS-based hydrogel,not promoted
same,growth of co-spheroids after introduction of FGF2,"[2]; in gelatin-based hydrogel, from 6 days after encapsulation",lightly enhanced
